Laboratory results published in patent US8901111B2, “Aryl-substituted heterocyclic urea modulators of fatty acid amide hydrolase” (Janssen Pharmaceutica NV, priority 2009, dated 2014).
Counter-ions that a name gives are not always drawn.

Tests used:
[1] = target: T1, rat FAAH (Rattus norvegicus, UniProt P97612); assay: Assay Method 2: FAAH assay, 3H-anandamide hydrolysis in homogenate of cells transfected with rat FAAH; assay type: biochemical; conditions: cell homogenate, 3H-AEA 80 nM, 1 h at rt, average of results
T1 construct: expressed in transfected cells; crude homogenate
T1 sequence (P97612 1-579): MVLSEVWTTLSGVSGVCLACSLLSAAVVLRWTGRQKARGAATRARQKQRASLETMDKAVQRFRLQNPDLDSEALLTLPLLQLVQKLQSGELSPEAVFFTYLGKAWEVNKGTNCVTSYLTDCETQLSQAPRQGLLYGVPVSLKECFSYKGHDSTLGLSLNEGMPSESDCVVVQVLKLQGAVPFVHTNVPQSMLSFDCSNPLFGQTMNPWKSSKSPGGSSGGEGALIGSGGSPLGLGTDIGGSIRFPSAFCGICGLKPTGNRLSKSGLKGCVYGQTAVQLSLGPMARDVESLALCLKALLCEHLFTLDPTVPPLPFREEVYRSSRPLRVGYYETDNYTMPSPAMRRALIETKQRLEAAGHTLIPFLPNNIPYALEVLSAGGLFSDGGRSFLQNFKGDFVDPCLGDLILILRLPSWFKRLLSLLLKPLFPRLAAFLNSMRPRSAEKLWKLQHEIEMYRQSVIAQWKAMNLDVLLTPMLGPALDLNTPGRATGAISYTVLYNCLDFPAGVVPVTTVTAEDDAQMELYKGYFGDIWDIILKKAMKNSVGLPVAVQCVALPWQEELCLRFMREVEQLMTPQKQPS
Procedure: A. Transfection of Cells with Rat FAAH
(§1) A 10-cm tissue culture dish with a confluent monolayer of SK-N-MC cells was split 2 days (d) prior to transfection. Using sterile technique, the media was removed and the cells were detached from the dish by the addition of trypsin. One fifth of the cells were then placed onto a new 10-cm dish. Cells were grown in a 37° C. incubator with 5% CO2 in Minimal Essential Media Eagle with 10% Fetal Bovine Serum. After 2 d, cells were approximately 80% confluent. These cells were removed from the dish with trypsin and pelleted in a clinical centrifuge. The pellet was re-suspended in 400 μL complete media and transferred to an electroporation cuvette with a 0.4 cm gap between the electrodes. Supercoiled rat FAAH cDNA (1 μg) was added to the cells and mixed. The voltage for the electroporation was set at 0.25 kV, and the capacitance was set at 960 μF. After electroporation, the cells were diluted into complete media (10 mL) and plated onto four 10-cm dishes. Because of the variability in the efficiency of electroporation, four different concentrations of cells were plated. The ratios used were 1:20, 1:10, and 1:5, with the remainder of the cells being added to the fourth dish. The cells were allowed to recover for 24 h before adding the selection media (complete media with 600 μg/mL G418). After 10 d, dishes were analyzed for surviving colonies of cells. Dishes with well-isolated colonies were used. Cells from individual colonies were isolated and tested.
(§2) T84 frozen cell pellets or transfected SK-N-MC cells (contents of 1×15 cm culture dishes) were homogenized in 50 mL of FAAH assay buffer (125 mM Tris, 1 mM EDTA, 0.2% Glycerol, 0.02% Triton X-100, 0.4 mM Hepes, pH 9). The assay mixture consisted of 50 μL of the cell homogenate, 10 μL of the test compound, and 40 μL of anandamide [1-^3H-ethanolamine] (^3H-AEA, Perkin-Elmer, 10.3 Ci/mmol), which was added last, for a final tracer concentration of 80 nM. The reaction mixture was incubated at rt for 1 h. During the incubation, 96-well Multiscreen filter plates (catalog number MAFCNOB50; Millipore, Bedford, Mass., USA) were loaded with 25 μL of activated charcoal (Multiscreen column loader, catalog number MACL09625, Millipore) and washed once with 100 μL of MeOH. Also during the incubation, 96-well DYNEX MicroLite plates (catalog number NL510410) were loaded with 100 μL of MicroScint40 (catalog number 6013641, Packard Bioscience, Meriden, Conn., USA). After the 1 h incubation, 60 μL of the reaction mixture were transferred to the charcoal plates, which were then assembled on top of the DYNEX plates using Centrifuge Alignment Frames (catalog number MACF09604, Millipore). The unbound labeled ethanolamine was centrifuged through to the bottom plate (5 min at 2000 rpm), which was preloaded with the scintillant, as described above. The plates were sealed and left at rt for 1 h before counting on a Hewlett Packard TopCount.
(§3) Results for compounds tested in these assays are summarized in Table 1, as an average of results obtained. Compounds were tested in the free base or trifluoroacetic acid salt form. Compounds tested in the trifluoroacetic acid salt form are indicated as such by a “*” designation after the example number. Where activity is shown as greater than (>) a particular value, the value is the solubility limit of the compound in the assay medium or the highest concentration tested in the assay.

[2] = target: T2, FAAH (Homo sapiens, UniProt O00519); assay: Assay Method 1: FAAH assay, 3H-anandamide hydrolysis in homogenate of cells transfected with human FAAH; assay type: biochemical; set-up: expressed in transfected cells; crude homogenate (T84 cell pellets named as alternative); conditions: cell homogenate, 3H-AEA 80 nM, 1 h at rt, average of results
T2 sequence (O00519 1-579): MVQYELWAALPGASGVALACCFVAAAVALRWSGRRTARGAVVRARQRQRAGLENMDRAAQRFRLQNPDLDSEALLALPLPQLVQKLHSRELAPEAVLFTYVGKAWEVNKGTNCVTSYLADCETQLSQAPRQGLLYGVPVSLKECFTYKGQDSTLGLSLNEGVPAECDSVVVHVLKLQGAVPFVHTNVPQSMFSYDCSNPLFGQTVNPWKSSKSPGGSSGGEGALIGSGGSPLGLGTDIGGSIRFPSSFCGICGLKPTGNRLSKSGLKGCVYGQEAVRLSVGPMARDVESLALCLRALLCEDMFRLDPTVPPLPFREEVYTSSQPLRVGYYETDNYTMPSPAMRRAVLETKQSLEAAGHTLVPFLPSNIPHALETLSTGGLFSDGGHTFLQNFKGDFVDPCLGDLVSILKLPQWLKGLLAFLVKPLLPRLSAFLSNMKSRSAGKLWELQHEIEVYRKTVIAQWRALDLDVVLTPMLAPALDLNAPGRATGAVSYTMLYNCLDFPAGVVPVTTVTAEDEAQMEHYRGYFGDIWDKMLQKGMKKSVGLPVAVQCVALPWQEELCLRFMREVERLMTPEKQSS
Procedure: A. Transfection of Cells with Human FAAH
as §1, with “Supercoiled human” for “Supercoiled rat”, “[…]” for “960 μF.”
as §2, §3

| SMILES | IC50 [1] | IC50 [2] |
| --- | --- | --- |
| O=C(Nc1cccnc1)N1CCC(CCOc2ccc(OC(F)(F)F)cc2)C1 (stereo not shown) [Example 60, 3-[2-(4-Trifluoromethoxy-phenoxy)-ethyl]-pyrrolidine-1-carboxylic acid pyridin-3-ylamide] | > 10000 nM | > 10000 nM |
| O=C(Nc1cccnc1)N1CCC(Cc2cccc(Oc3ccc(F)cc3)c2)C1 (stereo not shown) [Example 74, 3-[3-(4-Fluoro-phenoxy)-benzyl]-pyrrolidine-1-carboxylic acid pyridin-3-ylamide] | 1100 nM | 1200 nM |
| C#Cc1cccc(OCC2CN(C(=O)Nc3cccnc3)C2)c1 [Example 11, 3-(3-Ethynyl-phenoxymethyl)-azetidine-1-carboxylic acid pyridin-3-ylamide] | 1600 nM | 370 nM |
| O=C(Nc1cccnc1)N1CC(COc2ccc3c(c2)CCCC3)C1 [Example 13, 3-(5,6,7,8-Tetrahydro-naphthalen-2-yloxymethyl)-azetidine-1-carboxylic acid pyridin-3-ylamide] | 1700 nM | 2500 nM |
| O=C(Nc1cccnc1)N1CC(COc2ccc(Oc3ccccc3)cc2)C1 [Example 16, 3-(4-Phenoxy-phenoxymethyl)-azetidine-1-carboxylic acid pyridin-3-ylamide] | > 10000 nM | > 10000 nM |
| CCCCOc1cccc(OCC2CN(C(=O)Nc3cccnc3)C2)c1 [Example 12, 3-(3-Butoxy-phenoxymethyl)-azetidine-1-carboxylic acid pyridin-3-ylamide] | > 10000 nM | 300 nM |
| O=C(Nc1cnccc1Cl)N1CCC(CCOc2ccccc2)C1 (stereo not shown) [Example 57, 3-(2-Phenoxy-ethyl)-pyrrolidine-1-carboxylic acid (4-chloropyridin-3-yl)-amide] | > 10000 nM | 3000 nM |
| O=C(Nc1cccnc1)N1CCC(CCOc2cccc(Oc3ccc(Cl)cc3)c2)C1 (stereo not shown) [Example 63, 3-{2-[3-(4-Chloro-phenoxy)-phenoxy]-ethyl}-pyrrolidine-1-carboxylic acid pyridin-3-ylamide] | 630 nM | 600 nM |
| O=C(Nc1cccnc1)N1CC(CCOc2ccc(OC(F)(F)F)cc2)C1 [Example 30, 3-[2-(4-Trifluoromethoxy-phenoxy)-ethyl]-azetidine-1-carboxylic acid pyridin-3-ylamide] |  | > 10000 nM |
| O=C(Nc1cccnc1)N1CC(CCOCc2ccccc2)C1 [Example 69, 3-(2-Benzyloxy-ethyl)-azetidine-1-carboxylic acid pyridin-3-ylamide] | > 10000 nM |  |
| O=C(Nc1cccc2nonc12)N1CCC(Cc2ccc3c(c2)OC(F)(F)O3)C1 (stereo not shown) [Example 73, N-2,1,3-Benzoxadiazol-4-yl-3-[(2,2-difluoro-1,3-benzodioxol-5-yl)methyl]pyrrolidine-1-carboxamide] |  | > 10000 nM |
| O=C(Nc1cccnc1)N1CCC(CCOc2ccc(Cl)c(Cl)c2)C1 (stereo not shown) [Example 53, 3-[2-(3,4-Dichloro-phenoxy)-ethyl]-pyrrolidine-1-carboxylic acid pyridin-3-ylamide] |  | 6000 nM |
| O=C(Nc1cnccc1Cl)N1CC(CCOCc2ccccc2)C1 [Example 70, 3-(2-Benzyloxy-ethyl)-azetidine-1-carboxylic acid (4-chloropyridin-3-yl)-amide] |  | 936 nM |
| O=C(Nc1cnccc1Cl)N1CCC(CCOc2ccc(OC(F)(F)F)cc2)C1 (stereo not shown) [Example 62, 3-[2-(4-Trifluoromethoxy-phenoxy)-ethyl]-pyrrolidine-1-carboxylic acid (4-chloro-pyridin-3-yl)-amide] |  | 1300 nM |

Now from value to molecule:

| IC50 [1] | IC50 [2] | SMILES |
| --- | --- | --- |
| 62 nM | 200 nM | O=C(Nc1cccnc1)N1CCC(COc2cccc(Oc3ccc(Cl)cc3)c2)C1 (stereo not shown) [Example 51, 3-{[3-(4-Chlorophenoxy)phenoxy]methyl}-N-pyridin-3-ylpyrrolidine-1-carboxamide] |
| 739 nM | 275 nM | O=C(Nc1cnccc1Cl)N1CC(CCOCc2ccc(Cl)cc2)C1 [Example 65, 3-[2-(4-Chloro-benzyloxy)-ethyl]-azetidine-1-carboxylic acid (4-chloro-pyridin-3-yl)-amide] |
| 820 nM | 140 nM | C#Cc1cccc(OCCC2CN(C(=O)Nc3cccnc3)C2)c1 [Example 37, 3-[2-(3-Ethynyl-phenoxy)-ethyl]-azetidine-1-carboxylic acid pyridin-3-ylamide, trifluoroacetate salt] |
| 380 nM | 58 nM | CS(=O)(=O)c1ccc(Oc2cccc(OCC3CN(C(=O)Nc4cccnc4)C3)c2)cc1 [Example 24, 3-[3-(4-Methanesulfonyl-phenoxy)-phenoxymethyl]-azetidine-1-carboxylic acid pyridin-3-ylamide] |
| 430 nM | 200 nM | O=C(Nc1cccnc1)N1CC(CCOc2ccc3ccccc3n2)C1 [Example 36, 3-[2-(Quinolin-2-yloxy)-ethyl]-azetidine-1-carboxylic acid pyridin-3-ylamide] |
| 700 nM | 300 nM | O=C(Nc1cnccc1Cl)N1CCC(CCOc2ccc(Cl)c(Cl)c2)C1 (stereo not shown) [Example 58, 3-[2-(3,4-Dichloro-phenoxy)-ethyl]-pyrrolidine-1-carboxylic acid (4-chloro-pyridin-3-yl)-amide] |
